Experimental findings from publication PMC3104405 (Biochemical and biophysical research communications, 2011) are described below.

Where “and” joins values, the source holds several entries; their conditions need not be identical. Identical values can stand only once. Like-named read-outs stand apart in the source and are kept apart here.

The target in assay [1] is T1, anthrax lethal factor (LF) (Bacillus anthracis, UniProt P15917).
Assay [2] addresses T1, anthrax lethal factor (LF). The following applies: for Km / kcat / kcat/Km: pH 7.4.

T1 sequence (P15917 34-809 limits assumed): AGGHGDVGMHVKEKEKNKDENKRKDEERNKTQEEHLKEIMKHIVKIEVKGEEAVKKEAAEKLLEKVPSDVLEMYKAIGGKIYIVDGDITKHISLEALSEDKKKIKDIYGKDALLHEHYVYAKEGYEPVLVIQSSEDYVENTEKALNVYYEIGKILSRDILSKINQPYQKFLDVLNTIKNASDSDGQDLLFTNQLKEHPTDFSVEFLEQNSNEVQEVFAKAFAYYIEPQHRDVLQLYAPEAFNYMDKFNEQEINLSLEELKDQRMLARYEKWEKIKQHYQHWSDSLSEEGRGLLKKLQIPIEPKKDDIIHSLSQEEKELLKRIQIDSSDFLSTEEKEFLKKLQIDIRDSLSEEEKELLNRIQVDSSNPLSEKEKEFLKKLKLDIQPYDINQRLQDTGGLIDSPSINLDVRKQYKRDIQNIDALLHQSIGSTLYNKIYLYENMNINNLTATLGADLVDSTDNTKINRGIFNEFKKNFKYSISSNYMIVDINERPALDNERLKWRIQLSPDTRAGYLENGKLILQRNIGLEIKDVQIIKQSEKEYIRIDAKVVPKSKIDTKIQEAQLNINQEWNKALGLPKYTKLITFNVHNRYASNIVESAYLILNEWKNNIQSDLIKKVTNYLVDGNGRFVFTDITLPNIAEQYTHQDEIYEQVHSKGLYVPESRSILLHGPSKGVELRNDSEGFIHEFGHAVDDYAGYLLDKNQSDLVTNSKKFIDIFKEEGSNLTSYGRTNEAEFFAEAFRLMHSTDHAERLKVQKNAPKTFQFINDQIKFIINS

Consider Mca-KKPTP-IQLN-Dnp [Substrate 1], for which the kcat/Km (commonly the second-order rate constant that governs catalysis at low substrate concentration) in assay [1] is 1.5 min^−1 M^−1 and 1.5 ^a min^−1 M^−1.
As for Mca-KKVYP-YPMEK-Dnp [Substrate 2], in assay [2], the Km (commonly the concentration of substrate that gives half-maximal velocity) worked out at 58.5 µM; the kcat (as a rule, the number of substrate molecules converted per active site and unit of time at saturation) stood at 74.17 s⁻¹; the kcat/Km is 1.27 M⁻¹ s⁻¹.
For Mca-KKWLM-YPLEK-Dnp [Substrate 3], in assay [2], the “fold higher kcat/Km than substrate No. 2” value is on record as “about two-fold”, the Km was determined as 16.9 µM, the turnover number (kcat) turned out to be 39.83 s⁻¹ and the kcat/Km came to 2.33 M⁻¹ s⁻¹.
